Test results: patent publication US20200362301A1, “EFFICIENT, SCALABLE PRODUCTION OF HUMAN RETINAL PROGENITORS IN VITRO” (Wisconsin Alumni Research Foundation, priority 2019, published 2020)

Tests used:
Assay type in all cases: cell-based, human
PAX6D TetOn cells [1] = test: qPCR of retinal gene expression in PAX6D TetOn cells with DOX induction, with or without WNT agonist
From the text: (§1) We then examined the retinal progenitor population when PAX6A or PAX6D was induced. We turned on PAX6A and PAX6D separately in PAX6 KO cells after neuroepithelial cells were generated at day 6 and monitored the retinal progenitor generation along retinal differentiation. […] Thus, PAX6D but not PAX6A restores the PAX6 function in retinal specification.
(§2) We then asked if the failure of retinal specification in the PAX6D KO cells is rescued by regulating WNT signaling. Treatment of the PAX6D KO cells with IWR1 during retinal differentiation from day 0 to day 10 increased the expression of retinal related genes, including VSX2, LHX2, HES5, SIX3 and SIX6 (FIG. 8C). […] To further corroborate the role of WNTs in mediating the function of PAX6D in retinal specification, we then activated WNT pathway signaling under PAX6D induction along retinal differentiation.
(§3) PAX6 KO and PAX6D KO cell lines were designed by inserting the PGK-Puromycin in exon 8 and exon alpha of the PAX6 gene, respectively, which terminates the normal translation of PAX6 genes early and PAX6D isoform specifically. The PAX6 KO cells were then used to generate PAX6A TetOn and PAX6D TetOn by inserting the TetOn-PAX6A-3×FLAG and TetOn-PAX6D-3×FLAG into the AAVS1 site of PAX6 KO genome.
Retinal differentiation from human pluripotent stem cells was performed using the published protocol (Zhong et al., 2014). Briefly, hESCs were passaged to Vitronectin-coated plates and cultured to 60-70% confluency. On day 0 of retinal differentiation, cells were enzymatically detached by dispase (1 mg/ml) and cultured in suspension with E8 medium to form embryoid bodies (EB). EBs were gradually transitioned into neural induction medium (NIM) containing DMEM/F12 (1:1), 1% N2 and 1×NEAA by replacing the medium with a 3:1 ratio of E8/NIM on day 1, 1:1 on day 2, and 100% NIM on day 3. […]
(§4) Total RNA was isolated with the RNeasy Plus Mini Kit according to the manufacturer's instructions. For quantitative PCR (qPCR), cDNA was synthesized using PrimeScrip RT Reagent Kit. qPCR was performed using iTaq Universal SYBR Green Supermix. […]

[2] = system: wildtype cells (H9 hESCs) in retinal differentiation; test: qPCR of retinal gene (EFTF) expression in wildtype cells during retinal differentiation under WNT agonist/antagonist
Description: WNT8B has a restricted expression in the developing dorsal forebrain (Lako et al., 1998) and plays a repressive role in retinal fate specification (Liu et al., 2010). […] Given the direct connection between PAX6D and WNT8B, we hypothesized that PAX6D regulates retinal specification by repressing WNT8B transcription and thus WNT activity. Indeed, treatment with WNT agonist (CHIR99021, 3 μM) in wildtype cells from day 0 to day 10 suppressed the expression EFTFs. In contrast, treatment with a WNT antagonist (IWR1, 2.5 μM) in wildtype cells enhanced the expression of EFTFs (FIG. 8B).
Retinal differentiation from human pluripotent stem cells was performed using the published protocol (Zhong et al., 2014). Briefly, hESCs were passaged to Vitronectin-coated plates and cultured to 60-70% confluency. On day 0 of retinal differentiation, cells were enzymatically detached by dispase (1 mg/ml) and cultured in suspension with E8 medium to form embryoid bodies (EB). […]
as §4

PAX6D KO cells = test: qPCR of retinal gene expression in PAX6D KO cells treated with WNT antagonist (rescue of retinal differentiation); settings: treatment from day 0 to day 10 of retinal differentiation
From the text: as §2, §3
Retinal differentiation from human pluripotent stem cells was performed using the published protocol (Zhong et al., 2014). Briefly, hESCs were passaged to Vitronectin-coated plates and cultured to 60-70% confluency. […]
as §4

PAX6A TetOn cells = test: Flow cytometry of SOX1-/SOX2+ retinal progenitor population in PAX6A TetOn cells; settings: PAX6A induced (from 2.45% without induction)
Description: as §1
(§5) Flow cytometry was performed using Transcription Factor Buffer Set which is designed for transcription factor staining following manufacturer's instruction. Briefly, single cells were prepared using TrypLE Express Enzyme and fixed in the fixation buffer provided by the kit at 2-8° C. for 45 min. After 3 washings with the permeable buffer, the primary antibodies (PE-SOX1, V450-SOX2) were added to cells for 45 min at 2-8° C. in a light-tight box. The cells were washed 3 times before analyzed by flow cytometry (BD LSR or BD LSRII). Data analysis was performed using FlowJo.

PAX6D TetOn cells [3] = test: Flow cytometry of SOX1-/SOX2+ retinal progenitor population in PAX6D TetOn cells; settings: PAX6D induced (from 2.71% without induction)
Description: as §1, §5

[4] = PAX6D TetOn in PAX6 KO, DOX for 7 days from day 6 of retinal differentiation

For `Cc1c[nH]c(-c2cnc(NCCNc3ccc(C#N)cn3)nc2-c2ccc(Cl)cc2Cl)n1` [CHIR99021], the “PAX6D-induced retinal differentiation (expression of VSX2, LHX2, SIX6, NR2F1 and VAX2 at day 10)” value (PAX6D TetOn cells [1]; PAX6D TetOn cells induced by DOX, WNT agonist from day 0 to day 10) was “completely blocked” and the “expression of EFTFs (qPCR)” value ([2]; WNT agonist 3 μM from day 0 to day 10 of retinal differentiation) was “suppressed”.

With `O=C(Nc1cccc2cccnc12)c1ccc(N2C(=O)[C@@H]3[C@H](C2=O)[C@@H]2C=C[C@H]3C2)cc1` [IWR1] the “expression of retinal related genes, including VSX2, LHX2, HES5, SIX3 and SIX6” value (PAX6D KO cells) was “increased” and the “expression of EFTFs (qPCR)” value ([2]; WNT antagonist 2.5 μM) was “enhanced”.

With `C[C@H]1c2cccc(O)c2C(=O)C2=C(O)[C@]3(O)C(=O)C(C(N)=O)=C(O)[C@@H](N(C)C)[C@@H]3[C@@H](O)[C@@H]21` [DOX, doxycycline] the VAX2 expression increase (PAX6D TetOn cells [1]; [4]) was 2 fold, the VSX2 expression increase (PAX6D TetOn cells [1]; [4]) was 3 fold and the “SOX1-/SOX2+ retinal progenitor population (flow cytometry)” value (PAX6A TetOn cells) was 2.22%. For the same molecule, the “SOX1-/SOX2+ retinal progenitor population (flow cytometry)” value (PAX6D TetOn cells [3]) was 23.1%.
